Results as given in ChEMBL document CHEMBL3351580, “Pyrano-isochromanones as IL-6 inhibitors: synthesis, in vitro and in vivo antiarthritic activity” (J Med Chem, 2014).
The source made the active and inactive calls. The rule behind the calls is not given here.

What was measured:
B-cell = assay: Inhibition of LPS-induced cell proliferation of B cells (unknown origin) at 10 uM after 72 hrs by MTT assay; format: functional
[1] = Solubility in water; format: physicochemical
THP-1 [2] = assay: Inhibition of LPS-induced TNFalpha production in human THP1 cells after 24 hrs; format: functional, cell-based; conditions: THP-1, 24 h
THP-1 [3] = assay: Cytotoxicity against human THP1 cells after 48 hrs by MTT assay; format: cell-based; conditions: THP-1, 48 h
Mus musculus [4] = assay: Antiinflammatory activity in BALB/c mouse assessed as serum TNFalpha level at 10 mg/kg, po qd for 5 days followed by LPS challenge 1 hr after last compound dose on fifth day and measured 4 hrs post LPS challenge by ELISA method (reference value: 717 +/- 218 pg/mL); format: functional
Mus musculus [5] = assay: Antiinflammatory activity in BALB/c mouse assessed as serum TNFalpha level at 100 mg/kg, po qd for 5 days followed by LPS challenge 1 hr after last compound dose on fifth day and measured 4 hrs post LPS challenge by ELISA method (reference value: 717 +/- 218 pg/mL); format: functional
Mus musculus [6] = assay: Antiinflammatory activity in BALB/c mouse assessed as serum IL6 level at 10 mg/kg, po qd for 5 days followed by LPS challenge 1 hr after last compound dose on fifth day and measured 4 hrs post LPS challenge by ELISA method (reference value: 410 +/- 95 pg/mL); format: functional
Mus musculus [7] = assay: Antiinflammatory activity in BALB/c mouse assessed as serum IL6 level at 100 mg/kg, po qd for 5 days followed by LPS challenge 1 hr after last compound dose on fifth day and measured 4 hrs post LPS challenge by ELISA method (reference value: 410 +/- 95 pg/mL); format: functional
Mus musculus [8] = assay: Antiinflammatory activity in BALB/c mouse assessed as serum nitric oxide level at 100 mg/kg, po qd for 5 days followed by LPS challenge 1 hr after last compound dose on fifth day and measured 4 hrs post LPS challenge by Griess assay (reference value: 6.95 +/- 1.81 uM); format: functional
Mus musculus [9] = assay: Antiarthritic activity in BALB/c mouse assessed as reduction in SRBC-induced blood IFNgamma level administered orally once daily for 14 days measured 4 hrs post last dose by ELISA method; format: functional, organism-based
Mus musculus [10] = assay: Antiarthritic activity in BALB/c mouse assessed as reduction in SRBC-induced blood IL4 level administered orally once daily for 14 days measured 4 hrs post last dose by ELISA method; format: functional, organism-based
Mus musculus [11] = assay: Antiarthritic activity in BALB/c mouse assessed as reduction in SRBC-induced blood IL2 level administered orally once daily for 14 days measured 4 hrs post last dose by ELISA method; format: functional, organism-based
Mus musculus [12] = assay: Immunosuppressive activity in BALB/c mouse assessed as reduction in SRBC-induced humoral immunity by measuring IgM level at 3 to 30 mg/kg, po administered once daily for 14 days measured 4 hrs post last dose; format: functional, organism-based
Mus musculus [13] = assay: Immunosuppressive activity in BALB/c mouse assessed as reduction in SRBC-induced humoral immunity by measuring IgG level at 3 to 30 mg/kg, po administered once daily for 14 days measured 4 hrs post last dose; format: functional, organism-based
Mus musculus [14] = assay: Immunosuppressive activity in BALB/c mouse assessed as reduction in SRBC-induced DTH response at 3 to 30 mg/kg, po administered once daily for 14 days measured 4 hrs post last dose; format: functional, organism-based
Mus musculus [15] = assay: Antiarthritic activity in DBA/1J mouse collagen-induced arthritis model assessed as reduction in paw swelling at 30 mg/kg, po administered once daily for 49 days starting from onset of disease; format: functional; conditions: 1176 h
Mus musculus [16] = assay: Antiarthritic activity in DBA/1J mouse collagen-induced arthritis model assessed as reduction in anticollagen antibody IgG1 level at 3 to 30 mg/kg, po administered once daily for 49 days starting from onset of disease and measured after 14 days of disease onset by ELISA method; format: functional, organism-based
Mus musculus [17] = assay: Antiarthritic activity in DBA/1J mouse collagen-induced arthritis model assessed as reduction in anticollagen antibody IgG2a level at 3 to 30 mg/kg, po administered once daily for 49 days starting from onset of disease and measured after 14 days of disease onset by ELISA method; format: functional, organism-based
Mus musculus [18] = assay: Antiarthritic activity in DBA/1J mouse collagen-induced arthritis model assessed as reduction in anticollagen antibody IgG2a level at 3 to 30 mg/kg, po administered once daily for 49 days starting from onset of disease and measured after 49 days of disease onset by ELISA method; format: functional, organism-based
Mus musculus [19] = assay: Antiarthritic activity in DBA/1J mouse collagen-induced arthritis model assessed as reduction in IL6 level at 3 to 30 mg/kg, po administered once daily for 49 days starting from onset of disease and measured after 3 to 49 days of disease onset by ELISA method; format: functional, organism-based
Mus musculus [20] = assay: Antiarthritic activity in DBA/1J mouse collagen-induced arthritis model assessed as reduction in IL-1beta level at 3 to 30 mg/kg, po administered once daily for 49 days starting from onset of disease and measured after 3 to 49 days of disease onset by ELISA method; format: functional, organism-based
[21] = Solubility in PBS buffer; format: physicochemical
[22] = Solubility in SIF solution; format: physicochemical
CYP3A4 = CYP3A4 (Homo sapiens, UniProt P08684); assay: Inhibition of CYP3A4 (unknown origin) at 10 uM; format: ADME
Cytochrome P450 2D6 = Cytochrome P450 2D6 (Homo sapiens, UniProt P10635); assay: Activation of CYP2D6 (unknown origin) assessed as increase in enzyme activity at 10 uM; format: ADME
CYP2C9 = CYP2C9 (Homo sapiens, UniProt P11712); assay: Inhibition of CYP2C9 (unknown origin) at 10 uM; format: ADME
Cytochrome P450 1A2 = molecular target: T1, Cytochrome P450 1A2 (Homo sapiens, UniProt P05177); assay: Activation of CYP1A2 (unknown origin) assessed as increase in enzyme activity at 10 uM; format: ADME
T1 sequence (P05177 whole entry): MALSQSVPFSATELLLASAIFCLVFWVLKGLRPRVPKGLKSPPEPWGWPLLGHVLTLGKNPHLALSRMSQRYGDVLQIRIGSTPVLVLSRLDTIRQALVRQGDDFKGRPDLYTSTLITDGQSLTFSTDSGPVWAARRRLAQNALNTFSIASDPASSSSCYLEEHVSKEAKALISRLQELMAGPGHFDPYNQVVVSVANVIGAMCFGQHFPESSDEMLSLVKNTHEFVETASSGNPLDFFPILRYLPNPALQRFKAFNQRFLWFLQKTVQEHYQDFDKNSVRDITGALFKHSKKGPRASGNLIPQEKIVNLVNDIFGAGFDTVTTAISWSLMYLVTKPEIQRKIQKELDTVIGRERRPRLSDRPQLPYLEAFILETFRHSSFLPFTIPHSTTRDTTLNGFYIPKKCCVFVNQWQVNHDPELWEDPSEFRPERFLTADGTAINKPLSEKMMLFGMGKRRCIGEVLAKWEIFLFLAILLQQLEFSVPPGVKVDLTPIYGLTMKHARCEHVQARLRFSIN

CYP2C19 = CYP2C19 (Homo sapiens, UniProt P33261); assay: Inhibition of CYP2C19 (unknown origin) at 10 uM; format: ADME
[23] = Apparent permeability from basolateral to apical side in human Caco2 cells; format: ADME, cell-based; conditions: Caco-2
[24] = Efflux ratio in human Caco2 cells; format: ADME, cell-based; conditions: Caco-2

Chain of CYP2C19 (P33261 whole entry): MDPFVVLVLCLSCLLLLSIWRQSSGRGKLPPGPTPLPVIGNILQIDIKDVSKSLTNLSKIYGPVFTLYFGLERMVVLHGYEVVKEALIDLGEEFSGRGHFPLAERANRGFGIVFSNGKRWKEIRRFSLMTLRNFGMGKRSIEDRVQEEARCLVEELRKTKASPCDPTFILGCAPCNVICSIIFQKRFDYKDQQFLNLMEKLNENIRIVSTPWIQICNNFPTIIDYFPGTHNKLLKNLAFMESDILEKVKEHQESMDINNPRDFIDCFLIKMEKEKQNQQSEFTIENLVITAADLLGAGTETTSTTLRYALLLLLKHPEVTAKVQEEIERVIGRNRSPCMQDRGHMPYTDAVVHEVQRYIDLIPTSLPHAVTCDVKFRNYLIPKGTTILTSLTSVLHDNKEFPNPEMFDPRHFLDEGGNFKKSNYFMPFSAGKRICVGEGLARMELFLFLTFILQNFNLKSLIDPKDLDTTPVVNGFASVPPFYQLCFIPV
Chain of CYP2C9 (P11712 whole entry): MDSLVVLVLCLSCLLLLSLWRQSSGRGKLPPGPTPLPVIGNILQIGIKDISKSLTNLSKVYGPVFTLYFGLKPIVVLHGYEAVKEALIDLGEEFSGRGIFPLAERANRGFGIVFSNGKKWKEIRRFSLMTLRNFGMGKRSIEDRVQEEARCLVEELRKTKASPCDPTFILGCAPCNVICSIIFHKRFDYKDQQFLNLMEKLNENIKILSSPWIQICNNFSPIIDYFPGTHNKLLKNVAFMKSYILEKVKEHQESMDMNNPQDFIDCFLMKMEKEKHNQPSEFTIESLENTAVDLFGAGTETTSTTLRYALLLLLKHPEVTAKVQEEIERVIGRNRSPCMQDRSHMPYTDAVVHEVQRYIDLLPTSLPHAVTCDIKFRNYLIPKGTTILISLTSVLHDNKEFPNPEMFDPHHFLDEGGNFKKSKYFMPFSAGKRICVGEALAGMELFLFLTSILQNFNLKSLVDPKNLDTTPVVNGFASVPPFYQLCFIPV
Chain of Cytochrome P450 2D6 (P10635 whole entry): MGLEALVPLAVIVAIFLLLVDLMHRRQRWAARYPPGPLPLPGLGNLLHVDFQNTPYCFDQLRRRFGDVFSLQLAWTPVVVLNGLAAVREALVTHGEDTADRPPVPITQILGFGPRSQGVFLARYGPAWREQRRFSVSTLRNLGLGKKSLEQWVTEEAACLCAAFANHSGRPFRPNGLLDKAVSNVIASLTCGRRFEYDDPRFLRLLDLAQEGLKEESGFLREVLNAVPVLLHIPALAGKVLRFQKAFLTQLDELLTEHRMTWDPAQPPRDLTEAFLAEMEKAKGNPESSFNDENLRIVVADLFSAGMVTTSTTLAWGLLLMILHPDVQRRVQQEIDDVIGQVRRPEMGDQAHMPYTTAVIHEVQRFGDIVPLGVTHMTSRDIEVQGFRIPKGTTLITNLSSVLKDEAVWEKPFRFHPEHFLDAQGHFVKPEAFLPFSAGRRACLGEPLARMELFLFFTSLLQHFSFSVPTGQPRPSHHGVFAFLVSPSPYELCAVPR
Chain of CYP3A4 (P08684 whole entry): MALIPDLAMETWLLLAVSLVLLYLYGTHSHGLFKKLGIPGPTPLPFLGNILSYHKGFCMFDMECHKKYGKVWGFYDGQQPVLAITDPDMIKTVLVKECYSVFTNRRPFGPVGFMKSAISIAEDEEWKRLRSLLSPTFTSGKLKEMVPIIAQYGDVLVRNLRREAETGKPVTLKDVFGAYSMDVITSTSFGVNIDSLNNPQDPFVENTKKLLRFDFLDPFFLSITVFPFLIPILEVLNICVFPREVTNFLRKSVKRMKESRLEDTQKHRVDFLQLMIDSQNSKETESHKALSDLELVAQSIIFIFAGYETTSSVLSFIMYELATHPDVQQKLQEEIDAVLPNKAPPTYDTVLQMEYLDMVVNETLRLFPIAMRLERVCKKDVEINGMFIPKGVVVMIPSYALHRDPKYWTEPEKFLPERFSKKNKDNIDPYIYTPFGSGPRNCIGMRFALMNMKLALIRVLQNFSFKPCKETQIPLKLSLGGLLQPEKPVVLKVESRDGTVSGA

CCN(CC)Cc1c(O)c(OC)c(O)c2c1C(=O)O[C@@H]1[C@@H](O)[C@H](O)[C@@H](CO)O[C@@H]21
inhibition at 10 µM (B-cell): 47.9% | solubility [1]: > 1500 µg/mL | IC50 (THP-1 [2]): 13.4 µM | IC50 (THP-1 [3]): 77 µM | Activity (Mus musculus [4]): 585 pg/mL | Activity (Mus musculus [5]): 388 pg/mL | Activity (Mus musculus [6]): 102 pg/mL | Activity (Mus musculus [7]): 275 pg/mL | Activity (Mus musculus [8]): 3 µM | inhibition (Mus musculus [9]): Dose-dependent effect | inhibition (Mus musculus [10]): Dose-dependent effect | inhibition (Mus musculus [11]): Dose-dependent effect | inhibition (Mus musculus [12]): Active | inhibition (Mus musculus [13]): Active | inhibition (Mus musculus [14]): Active | inhibition in vivo at 30 mg/kg (Mus musculus [15]): 28% | inhibition (Mus musculus [16]): Active | inhibition (Mus musculus [17]): Active | inhibition (Mus musculus [18]): Active | inhibition (Mus musculus [19]): Active | inhibition (Mus musculus [20]): Active | solubility [21]: > 1500 µg/mL | solubility [22]: > 1500 µg/mL | inhibition at 10 µM (CYP3A4): 15% | Activity (Cytochrome P450 2D6): 36% | inhibition at 10 µM (CYP2C9): 32% | Activity (Cytochrome P450 1A2): 10% | inhibition at 10 µM (CYP2C19): 6% | Papp B→A [23]: 1.59 ×10⁻⁶ cm/s | efflux ratio [24]: 2.2
